From ChEMBL document CHEMBL4354798, “Synthetic Approaches to the New Drugs Approved During 2017” (J Med Chem, 2019)

Experiments:
[1] = Half life in human infected with HIV 20 to 40 mg, po for 7 days; format: ADME, organism-based; details: in vivo
[2] = Half life in human Plasma; format: ADME, cell-free
[3] = Antitumour activity in human FLT3 positive AML patient assessed as increase in survival time at 50 mg, po bid for 14 days co-treated with CTX relative to control; format: functional

Q: Which half-life [1] does the source give for CCC(=O)[N-]S(=O)(=O)c1ccc(NC(=O)Cc2ccc(Br)c(Oc3cc(Cl)cc(C#N)c3)c2F)c(Cl)c1.[Na+] [ELSULFAVIRINE SODIUM] here?
A: 120 min

Q: For Cc1cccc(C)c1N(CC(=O)Nc1ccc(-c2ncon2)cc1)C(=O)C1CCS(=O)(=O)CC1 [AMENAMEVIR], which half-life [2] is on record?
A: 480 min

Q: For CO[C@@H]1[C@H](N(C)C(=O)c2ccccc2)C[C@H]2O[C@]1(C)n1c3ccccc3c3c4c(c5c6ccccc6n2c5c31)C(=O)NC4 [MIDOSTAURIN], which Activity [3] is on record?
A: 80%

Q: For N#Cc1cc(Cl)cc(Oc2c(Br)ccc(CC(=O)Nc3ccc(S(N)(=O)=O)cc3Cl)c2F)c1 [DEPULFAVIRINE], which half-life [1] is on record?
A: > 7200 min
